Patent publication US10555532B2, “Plant growth-promoting bacteria and methods of use” (priority 2013, dated 2020)

Columns and labels:
Corn = Corn growth, bacteria with plant-growth-promoting chemicals; type: in vivo; conditions: 2 weeks
Protocol: (§1) The selected strains were grown in minimal media (KH2PO4 3 g, Na2HPO4 6 g, NH4Cl 1 g, NaCl 0.50 g, MgSO4 7H2O 0.15 g, CaCl2 2H2O 0.013 g, and glucose 1 g, per L dry weight).

Soybeans = assay: Soybean growth, bacteria with plant-growth-promoting chemicals; type: in vivo; conditions: 2 weeks
Protocol: as §1

Structure (SMILES)	Comparison to Uninoculated (Corn; corn height) [%]	Avg. Height (cm) (Corn; corn, with or without 2,3-butanediol or yeast extract)	Comparison to Uninoculated (Soybeans; soybean height) [%]	Avg. Height (cm) (Soybeans; soybeans, with or without glycerol, 2,3-butanediol or yeast extract)
CC(O)C(C)O (stereo not shown) [Uninoculated and 2,3-butanediol, 2,3-butanediol]	105.8	16.03	–	–
OCC(O)CO [Uninoculated and Glycerol, glycerol]	–	–	109.8	12.34
